Measured values published in patent publication US20230372309A1, “ALPHA-2 ADRENERGIC RECEPTOR ANTAGONIST” (Kyoto University, priority 2020, published 2023).

Tests used:
a2B adrenergic receptor [1] = biological target: T1, a2B adrenergic receptor (Homo sapiens, UniProt P18089); assay: Binding affinity to a2 adrenergic receptors, tritium-labeled rauwolscine tracer; conditions: tritium-labeled rauwolscine as tracer
T1 construct: expressed in transfected cells; host or cells: HEK293
T1 sequence (P18089 1-450): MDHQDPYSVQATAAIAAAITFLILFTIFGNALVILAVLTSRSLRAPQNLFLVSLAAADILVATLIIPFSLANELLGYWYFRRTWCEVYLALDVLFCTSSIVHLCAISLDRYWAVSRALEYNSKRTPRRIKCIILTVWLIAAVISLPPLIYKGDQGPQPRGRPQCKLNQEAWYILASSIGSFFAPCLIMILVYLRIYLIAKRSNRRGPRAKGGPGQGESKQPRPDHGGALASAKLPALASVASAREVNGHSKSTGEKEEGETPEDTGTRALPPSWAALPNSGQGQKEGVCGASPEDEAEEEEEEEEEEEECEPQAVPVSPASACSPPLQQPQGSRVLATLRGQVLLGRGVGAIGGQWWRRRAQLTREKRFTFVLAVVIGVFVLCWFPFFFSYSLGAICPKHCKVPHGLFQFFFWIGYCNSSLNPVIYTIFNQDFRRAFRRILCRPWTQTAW
Description: (§1) [Binding Affinity to a2 Adrenergic Receptors]
(§2) The compound 1 was assayed for its inhibitory activity against a2A adrenergic receptor and a2B adrenergic receptor using rauwolscine with a methyl group labeled with tritium as a tracer, and binding affmity was examined. RauwoLscine is an antagonist that specifically binds to a2 adrenergic receptors.

a2A adrenergic receptor [2] = biological target: T2, a2A adrenergic receptor (Homo sapiens, UniProt P08913); assay: as above; conditions: tritium-labeled rauwolscine as tracer
T2 construct: expressed in transfected cells; host or cells: HEK293
T2 sequence (P08913 1-465): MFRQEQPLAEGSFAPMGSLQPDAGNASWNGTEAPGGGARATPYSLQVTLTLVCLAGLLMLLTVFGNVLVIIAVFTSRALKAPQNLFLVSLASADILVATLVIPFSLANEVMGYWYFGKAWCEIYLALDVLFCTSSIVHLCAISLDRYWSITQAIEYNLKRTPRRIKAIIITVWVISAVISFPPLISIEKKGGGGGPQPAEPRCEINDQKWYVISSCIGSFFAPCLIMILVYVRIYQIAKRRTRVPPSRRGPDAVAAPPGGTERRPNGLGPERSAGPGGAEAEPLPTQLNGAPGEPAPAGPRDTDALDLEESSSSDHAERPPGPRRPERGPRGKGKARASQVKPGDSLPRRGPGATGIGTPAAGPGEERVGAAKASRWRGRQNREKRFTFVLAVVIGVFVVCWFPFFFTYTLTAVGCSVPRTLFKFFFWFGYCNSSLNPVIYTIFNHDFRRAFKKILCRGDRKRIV
Description: as §1, §2

a2C adrenergic receptor = biological target: T3, a2C adrenergic receptor (Homo sapiens, UniProt P18825); assay: TGFα shedding assay in transfected HEK293 cells, noradrenaline stimulation; type: cell-based; conditions: 5 nM Noradrenaline stimulation, read-out: IC50, shedding assay, α2C
T3 construct: expressed in transfected cells; host or cells: HEK293
T3 sequence (P18825 1-462): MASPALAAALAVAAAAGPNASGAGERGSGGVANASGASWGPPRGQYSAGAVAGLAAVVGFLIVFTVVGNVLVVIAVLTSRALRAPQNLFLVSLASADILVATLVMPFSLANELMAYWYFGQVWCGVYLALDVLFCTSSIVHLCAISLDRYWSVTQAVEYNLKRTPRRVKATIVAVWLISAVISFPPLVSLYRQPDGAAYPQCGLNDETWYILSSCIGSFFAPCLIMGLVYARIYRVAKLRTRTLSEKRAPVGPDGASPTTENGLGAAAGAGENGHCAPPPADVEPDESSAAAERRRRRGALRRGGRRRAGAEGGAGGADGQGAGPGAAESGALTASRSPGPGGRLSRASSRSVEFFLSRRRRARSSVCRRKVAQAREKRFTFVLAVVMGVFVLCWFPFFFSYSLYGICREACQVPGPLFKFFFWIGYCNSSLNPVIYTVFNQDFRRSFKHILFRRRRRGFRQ
Description: (§3) The TGFα shedding assay is known as an assay by which a signal transduction pathway of a GPCR can be detected and measured (Patent Document 3). When the signal transduction pathway of a GPCR is activated, fusion proteins of membrane-bound alkaline phosphatase (AP) and TGFα are cleaved by TACE (TNFα converting enzyme), which is a membrane protease, and AP-TGFα is released from the cells. This released AP is measured.
(§4) The TGFα shedding assay was performed according to the method disclosed in WO2015/128894A1.
(§5) Specifically, human embryonic kidney HEK293 cells were transfected with a plasmid vector containing the cDNA of alkaline phosphatase (AP) fused TGFα, a plasmid vector containing the cDNA of a fusion protein (Gaq/i) of an N-terminal peptide fragment of Ga protein Gaq and a C-terminal peptide fragment of Ga protein Gai, and a plasmid vector containing the cDNA of a target GPCR, 24 hours later a compound was added and cultured for 30 minutes, a GPCR agonist (5 nM noradrenaline) was added, one hour later half of the culture supernatant was transferred to a new plate to prepare a supernatant plate, and the remaining plate was used as a cell plate. Ap-nitrophenyl phosphate solution was added to each plate and allowed to stand, and when 0 hours and 2 hours had passed, the absorbance at 405 nm was measured using a plate reader.
(§6) The measured value was converted to AP activity (%) according to the method described in WO2015/128894A1, and the obtained value was used as % Shedding.

a2B adrenergic receptor [3] = biological target: T1, a2B adrenergic receptor; assay: as above; type: cell-based; conditions: for IC50: 5 nM Noradrenaline stimulation, HEK293 cells, read-out: IC50, shedding assay, α2B
Description: as §3, §4, §5, §6

a2A adrenergic receptor [4] = biological target: T2, a2A adrenergic receptor; assay: as above; type: cell-based; conditions: 5 nM Noradrenaline stimulation, read-out: IC50, shedding assay, α2A
Description: as §3, §4, §5, §6

a1B adrenergic receptor = biological target: T4, a1B adrenergic receptor (Homo sapiens, UniProt P35368); assay: Binding affinity to a1 adrenergic receptors, tritium-labeled prazosin tracer; conditions: tritium-labeled prazosin as tracer
T4 sequence (P35368 1-520): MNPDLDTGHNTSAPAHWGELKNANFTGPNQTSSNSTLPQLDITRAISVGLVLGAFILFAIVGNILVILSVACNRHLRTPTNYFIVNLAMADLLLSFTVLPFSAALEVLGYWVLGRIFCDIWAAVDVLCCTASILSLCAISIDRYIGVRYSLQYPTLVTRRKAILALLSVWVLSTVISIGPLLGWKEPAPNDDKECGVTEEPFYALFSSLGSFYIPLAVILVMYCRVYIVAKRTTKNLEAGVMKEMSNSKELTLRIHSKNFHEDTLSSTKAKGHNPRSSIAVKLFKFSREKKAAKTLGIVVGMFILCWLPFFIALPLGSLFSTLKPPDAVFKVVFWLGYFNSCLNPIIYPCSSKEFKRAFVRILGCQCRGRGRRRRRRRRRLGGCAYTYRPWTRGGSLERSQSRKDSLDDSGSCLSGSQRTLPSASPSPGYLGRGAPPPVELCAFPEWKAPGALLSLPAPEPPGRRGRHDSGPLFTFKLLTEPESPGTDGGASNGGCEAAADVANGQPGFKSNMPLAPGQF
Description: (§7) [Binding Affinity to a1 Adrenergic Receptors]
(§8) The compound 1 was assayed for its inhibitory activity against a1A adrenergic receptor and a1B adrenergic receptor using prazosin with a 7-methoxy group labeled with tritium as a tracer, and binding affinity was examined. Prazosin is an antagonist that specifically binds to a1 adrenergic receptors.

a1A adrenergic receptor = biological target: T5, a1A adrenergic receptor (Homo sapiens, UniProt P35348); assay: as above; conditions: tritium-labeled prazosin as tracer
T5 sequence (P35348 1-466): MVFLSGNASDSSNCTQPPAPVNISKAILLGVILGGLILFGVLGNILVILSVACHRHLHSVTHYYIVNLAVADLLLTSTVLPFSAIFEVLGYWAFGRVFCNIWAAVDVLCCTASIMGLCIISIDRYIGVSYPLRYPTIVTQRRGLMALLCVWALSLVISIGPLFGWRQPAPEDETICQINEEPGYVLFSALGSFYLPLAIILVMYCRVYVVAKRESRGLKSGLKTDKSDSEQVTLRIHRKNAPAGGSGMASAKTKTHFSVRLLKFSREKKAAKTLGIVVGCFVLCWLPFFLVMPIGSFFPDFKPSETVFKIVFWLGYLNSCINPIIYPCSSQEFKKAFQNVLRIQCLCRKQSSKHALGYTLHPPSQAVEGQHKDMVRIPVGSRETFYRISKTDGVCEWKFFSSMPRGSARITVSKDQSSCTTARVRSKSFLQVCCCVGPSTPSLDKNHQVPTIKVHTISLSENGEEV
Description: as §7, §8

binding affinity to a2B adrenergic receptor (a2B adrenergic receptor [1]) | binding affinity to a2B adrenergic receptor compared with a2A adrenergic receptor (a2B adrenergic receptor [1]; a2B versus a2A) | binding affinity to a2A adrenergic receptor (a2A adrenergic receptor [2]) | IC50 (a2C adrenergic receptor) [µM] | IC50 (a2B adrenergic receptor [3]) [µM] | binding affinity (inhibitory activity) to a2B adrenergic receptor compared with a2A and a2C adrenergic receptor (a2B adrenergic receptor [3]; shedding assay, Table 1, a2B versus a2A and a2C) | IC50 (a2A adrenergic receptor [4]) [µM] | binding affinity to the a1B adrenergic receptor (a1B adrenergic receptor) | binding affinity to the a1A adrenergic receptor (a1A adrenergic receptor) | Compound
exhibited selective binding affinity | higher | exhibited selective binding affinity | > 30 | 1.2 | higher | > 30 | did not exhibit binding affinity | did not exhibit binding affinity | CCN1/C(=C/C(C)=O)Sc2ccc(F)cc21 [Compound 1, (1Z)-1-(3-ethyl-5-fluoro-2(3H)-benzothiazolylidene)-2-propanone]
 |  |  | > 30 | > 30 |  | > 30 |  |  | CCN1/C(=C/C(C)=O)Sc2ccc(OC)cc21 [Compound 2]
 |  |  | > 30 | > 30 |  | > 30 |  |  | CCN1/C(=C/C(C)=O)Sc2cc(OC)ccc21 [Compound 3, (1Z)-1-(3-ethyl-6-methoxy-2(3H)-benzothiazoylidene)-2-propanone]
